Assay results as given in patent US8735414B2 (priority 2009, dated 2014).

Key:
[1] = system: bicistronic HCV replicon (replicon RNA, GenBank Accession No. AJ242654); experiment: HCV Replicon Assay; type: cell-based; details: Hepatitis C virus, 72 h, read-out: Replicon IC50

| Structure (SMILES) | melting point | IC50 [1] |
| --- | --- | --- |
| Cc1cc2c(cc1F)c(C(N)=O)c(-c1ccc(S(=O)(=O)N[C@@H](C)C(F)(F)F)cn1)n2C1CCC1 [compound 737, 1-cyclobutyl-5-fluoro-6-methyl-2-(5-{[(2S)-1,1,1-trifluoropropan-2-yl]sulfamoyl}pyridin-2-yl)-1H-indole-3-carboxamide] | 190 to 194 °C | < 500 nM |
| CCc1cc2c(cc1F)c(C#N)c(-c1ccc(S(=O)(=O)N[C@@H](C)C(F)(F)F)cn1)n2-c1ncccc1Cl [compound 965, 6-[1-(3-chloropyridin-2-yl)-3-cyano-6-ethyl-5-fluoro-1H-indol-2-yl]-N-[(2S)-1,1,1-trifluoropropan-2-yl]pyridine-3-sulfonamide] | 200 to 208 °C | < 500 nM |
| C[C@@H](NS(=O)(=O)c1ccc(-c2c(C#N)c3cc(Cl)ccc3n2-c2ccccn2)nc1)C(F)(F)F [compound 491, 6-[5-chloro-3-cyano-1-(pyridin-2-yl)-1H-indol-2-yl]-N-[(2R)-1,1,1-trifluoropropan-2-yl]pyridine-3-sulfonamide] | 150 to 154 °C | 500 to 2000 nM |
| Cc1ccc2c(C#N)c(-c3ccc(S(=O)(=O)NC(CF)CF)cn3)n(C3CCCCC3)c2c1 [compound 513, 6-(3-cyano-1-cyclohexyl-6-methyl-1H-indol-2-yl)-N-(1,3-difluoropropan-2-yl)pyridine-3-sulfonamide] | 195 to 203 °C | < 500 nM |
| C[C@H](NS(=O)(=O)c1cnc(-c2c(C#N)c3cc(F)ccc3n2C2CCC2)nc1)C1CC1 [compound 544, 2-(3-cyano-1-cyclobutyl-5-fluoro-1H-indol-2-yl)-N-[(1S)-1-cyclopropylethyl]pyrimidine-5-sulfonamide] | 178 to 181 °C | < 500 nM |
| N#Cc1c(-c2ccc(S(=O)(=O)NC(CF)CF)cn2)n(C2CCCCC2)c2cc(Cl)ccc12 [compound 89, 6-(6-chloro-3-cyano-1-cyclohexyl-1H-indol-2-yl)-N-(1,3-difluoropropan-2-yl)pyridine-3-sulfonamide] | 203 to 207 °C | < 500 nM |
| CCc1ccc2c(C#N)c(-c3ccc(S(=O)(=O)NC(C)C)cn3)n(C(C)C)c2c1 [compound 75, 6-[3-cyano-6-ethyl-1-(propan-2-yl)-1H-indol-2-yl]-N-(propan-2-yl)pyridine-3-sulfonamide] | 185 to 186 °C | < 500 nM |
| Cc1cc2c(cc1F)c(C#N)c(-c1ccc(S(=O)(=O)NC(C)(C)C(F)(F)F)cn1)n2C1CCCCC1 [compound 705, 6-(3-cyano-1-cyclohexyl-5-fluoro-6-methyl-1H-indol-2-yl)-N-(1,1,1-trifluoro-2-methylpropan-2-yl)pyridine-3-sulfonamide] | 248 to 254 °C | < 500 nM |
| COc1cc2c(C#N)c(-c3ccc(S(=O)(=O)N[C@@H](C)C(F)(F)F)cn3)n(C3CCCC3)c2cc1C [compound 669, 6-(3-cyano-1-cyclopentyl-5-methoxy-6-methyl-1H-indol-2-yl)-N-[(2S)-1,1,1-trifluoropropan-2-yl]pyridine-3-sulfonamide] | 211 to 211.5 °C | < 500 nM |
| C[C@H](NS(=O)(=O)c1ccc(-c2c(C#N)c3ccc(CC(F)F)cc3n2C2CCC2)nc1)C1CC1 [compound 590, 6-[3-cyano-1-cyclobutyl-6-(2,2-difluoroethyl)-1H-indol-2-yl]-N-[(1S)-1-cyclopropylethyl]pyridine-3-sulfonamide] | 146 to 155 °C | < 500 nM |
| CCc1cc2c(cc1F)c(C#N)c(-c1ccc(S(=O)(=O)NC(CF)CF)cn1)n2C1CCCC1 [compound 639, 6-(3-cyano-1-cyclopentyl-6-ethyl-5-fluoro-1H-indol-2-yl)-N-(1,3-difluoropropan-2-yl)pyridine-3-sulfonamide] | 179.5 to 180 °C | < 500 nM |
| C[C@H](NS(=O)(=O)c1cnc(-c2c(C#N)c3ccc(OC(F)F)cc3n2C2CCCCC2)nc1)C(F)(F)F [compound 472, 2-[3-cyano-1-cyclohexyl-6-(difluoromethoxy)-1H-indol-2-yl]-N-[(2S)-1,1,1-trifluoropropan-2-yl]pyrimidine-5-sulfonamide] | 187 to 189 °C | < 500 nM |
| Cc1cc2c(C#N)c(-c3ccc(S(=O)(=O)N[C@@H](C)C(F)(F)F)cn3)n(C3CCCC3)c2cc1F [compound 483, 6-(3-cyano-1-cyclopentyl-6-fluoro-5-methyl-1H-indol-2-yl)-N-[(2S)-1,1,1-trifluoropropan-2-yl]pyridine-3-sulfonamide] | 219 to 223 °C | < 500 nM |
| N#Cc1c(-c2ncc(S(=O)(=O)NC(CF)CF)cn2)n(C2CCCCC2)c2cc(OC(F)F)ccc12 [compound 179, 2-[3-cyano-1-cyclohexyl-6-(difluoromethoxy)-1H-indol-2-yl]-N-(1,3-difluoropropan-2-yl)pyrimidine-5-sulfonamide] | 174 to 176 °C | < 500 nM |
| Cc1cc2c(cc1F)c(C#N)c(-c1ncc(S(=O)(=O)N[C@@H](C)C(F)(F)F)cc1C)n2-c1ncccn1 [compound 888, 6-[3-cyano-5-fluoro-6-methyl-1-(pyrimidin-2-yl)-1H-indol-2-yl]-5-methyl-N-[(2S)-1,1,1-trifluoropropan-2-yl]pyridine-3-sulfonamide] | 201 to 204 °C | < 500 nM |
| Cc1ccc2c(c1)c(C#N)c(-c1ncc(S(=O)(=O)NC(CF)CF)cn1)n2C1CCCCC1 [compound 198, 2-(3-cyano-1-cyclohexyl-5-methyl-1H-indol-2-yl)-N-(1,3-difluoropropan-2-yl)pyrimidine-5-sulfonamide] | 211 to 215 °C | 500 to 2000 nM |
| CC(C)NS(=O)(=O)c1cnc(-c2c(C#N)c3ccc(OC(F)(F)F)cc3n2C2CCCC2)nc1 [compound 117, 2-[3-cyano-1-cyclopentyl-6-(trifluoromethoxy)-1H-indol-2-yl]-N-(propan-2-yl)pyrimidine-5-sulfonamide] | 216 to 218 °C | 500 to 2000 nM |
| Cc1cc2c(C#N)c(-c3ccc(S(=O)(=O)N[C@@H](C)C(F)(F)F)cn3)n(C3CCC3)c2cc1Cl [compound 506, 6-(6-chloro-3-cyano-1-cyclobutyl-5-methyl-1H-indol-2-yl)-N-[(2S)-1,1,1-trifluoropropan-2-yl]pyridine-3-sulfonamide] | 198 to 198.5 °C | < 500 nM |
| C[C@@H](NS(=O)(=O)c1ccc(-c2c(C#N)c3cc(F)c(OC(F)F)cc3n2C2CCCC2)nc1)C(F)(F)F [compound 713, 6-[3-cyano-1-cyclopentyl-6-(difluoromethoxy)-5-fluoro-1H-indol-2-yl]-N-[(2R)-1,1,1-trifluoropropan-2-yl]pyridine-3-sulfonamide] | 197 to 200 °C | < 500 nM |
| CCc1ccc2c(C#N)c(-c3ccc(S(=O)(=O)NC(CF)CF)cn3)n(C3CCC3)c2c1 [compound 48, 6-(3-cyano-1-cyclobutyl-6-ethyl-1H-indol-2-yl)-N-(1,3-difluoropropan-2-yl)pyridine-3-sulfonamide] | 201 to 202 °C | < 500 nM |
| CCc1cc(F)c2c(C(N)=O)c(-c3ccc(NS(=O)(=O)C(C)(C)C)nc3)n(-c3ccccc3)c2c1 [compound 1111, 2-{6-[(tert-butylsulfonyl)amino]pyridin-3-yl}-6-ethyl-4-fluoro-1-phenyl-1H-indole-3-carboxamide] | 288 to 294 °C | < 500 nM |
| CC(C)NS(=O)(=O)c1cnc(-c2c(C#N)c3ccc(F)cc3n2C2CCC2)nc1 [compound 138, 2-(3-cyano-1-cyclobutyl-6-fluoro-1H-indol-2-yl)-N-(propan-2-yl)pyrimidine-5-sulfonamide] | 193 to 195 °C | 500 to 2000 nM |
| CC(C)(C)NS(=O)(=O)c1ccc(-c2c(C#N)c3cc(F)c(C4CC4)cc3n2-c2ccccc2)nc1 [compound 1117, N-tert-butyl-6-(3-cyano-6-cyclopropyl-5-fluoro-1-phenyl-1H-indol-2-yl)pyridine-3-sulfonamide] | 219.2 to 220.8 °C | < 500 nM |
| N#Cc1ccc2c(C#N)c(-c3ncc(S(=O)(=O)NC(CF)CF)cn3)n(C3CCC3)c2c1 [compound 466, 2-(3,6-dicyano-1-cyclobutyl-1H-indol-2-yl)-N-(1,3-difluoropropan-2-yl)pyrimidine-5-sulfonamide] | 240 to 241 °C | < 500 nM |
| Cc1ccc2c(C#N)c(-c3ccc(S(=O)(=O)NC(C)(C)C(F)(F)F)cn3)n(C3CCCC3)c2c1 [compound 371, 6-(3-cyano-1-cyclopentyl-6-methyl-1H-indol-2-yl)-N-(1,1,1-trifluoro-2-methylpropan-2-yl)pyridine-3-sulfonamide] | 202 to 211 °C | < 500 nM |
| Cc1cc2c(cc1F)c(C#N)c(-c1ccc(S(=O)(=O)N[C@@H](C)C(F)(F)F)cn1)n2-c1ccncc1F [compound 1014, 6-[3-cyano-5-fluoro-1-(3-fluoropyridin-4-yl)-6-methyl-1H-indol-2-yl]-N-[(2S)-1,1,1-trifluoropropan-2-yl]pyridine-3-sulfonamide] | 204.2 to 210.5 °C | < 500 nM |
| CC(C)(NS(=O)(=O)c1ccc(-c2c(C#N)c3ccc(OC(F)F)cc3n2-c2ccc(F)cc2)nc1)C(F)(F)F [compound 687, 6-[3-cyano-6-(difluoromethoxy)-1-(4-fluorophenyl)-1H-indol-2-yl]-N-(1,1,1-trifluoro-2-methylpropan-2-yl)pyridine-3-sulfonamide] | 215 to 216 °C | < 500 nM |
| CC(C)n1c(-c2ccc(S(=O)(=O)N[C@H](C)C(F)(F)F)cn2)c(C#N)c2ccc(OC(F)F)cc21 [compound 194, 6-[3-cyano-6-(difluoromethoxy)-1-(propan-2-yl)-1H-indol-2-yl]-N-[(2R)-1,1,1-trifluoropropan-2-yl]pyridine-3-sulfonamide] | 166 to 168 °C | < 500 nM |
